By IC50 is commonly meant the concentration that inhibits the measured activity by half.

The source of these data is patent publication US12275720B2, “Small molecule inhibitors of galectin-3” (BRISTOL MYERS SQUIBB, priority 2020, dated 2025).

Sequence of His-tagged recombinant human Gal-3 (hGal-3) (P17931 whole entry): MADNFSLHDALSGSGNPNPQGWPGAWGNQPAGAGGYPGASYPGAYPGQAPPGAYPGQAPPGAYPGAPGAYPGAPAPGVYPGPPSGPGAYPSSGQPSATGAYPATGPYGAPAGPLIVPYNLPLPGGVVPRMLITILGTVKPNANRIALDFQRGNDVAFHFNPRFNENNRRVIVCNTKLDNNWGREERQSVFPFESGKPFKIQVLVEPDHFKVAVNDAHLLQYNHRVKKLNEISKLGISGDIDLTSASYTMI
T1 sequence (P17931 whole entry): as above

The target of one experiment is His-tagged recombinant human Gal-3 (hGal-3) (Homo sapiens, UniProt P17931). The experiment can be described thus: Gal 3 HTRF Assay. In kind it is binding. The settings on record: HTRF assay (default), 15 nM hGal-3, 15 nM B-ASF; read-out: hGal3 IC50 (HTRF). Here is the method:
• ASSAY BUFFER Composition: 25 mM HEPES, 100 mM NaCl, 0.005% Tween 20, 0.05% BSA prepared in sterile water (all reagents from Sigma). Controls: • Positive Control: 100% DMSO (1 μL)+His-tagged hGal-3 (20 μL)+B-ASF (20 μL)+Anti-His Terbium Antibody (5 μL)+Strep d2 Antibody (5 μL). • Negative Control: 100% DMSO (1 μL)+His-tagged hGal-3(20 μL)+Anti His Terbium Antibody (5 μL)+Strep d2 Antibody (5 μL). Stocks Preparation:
PROTOCOL: The Gal-3 assays were performed in 384 white Opti plates in three replicates at room temperature with gentle shaking at 250-300 rpm From the original stocks, […] working stock concentrations of His-tagged recombinant human Gal-3 (hGal-3) and that of B-ASF were prepared. From the working stock, 20 μL of hGal-3 (15 nM) and 20 μL B-ASF (15 nM) were added to the plates. In Negative Control, only hGal-3 was added. A concentration range of 50× working stocks were prepared for the compounds in 100% DMSO. Aliquots of 1 μL of the compounds were added to the wells and pre-incubated with 20 μL hGal-3 per well for 30 minutes Then 20 μL B-ASF were added and incubated for another 1 hour. To detect the signal, 5 μL (final conc. of 1.0 nM) terbium labelled Anti-His antibody was added and incubated for 30 min followed by adding 5 μL (final conc. of 20 nM) Streptavidin d2 and incubation for another 1 hour. The assay signal was detected using HTRF screen protocol (Excitation wavelength=340 nm, emission wavelength=615 nm/665 nm) on Envision 2104 Multilabel Reader. Data analysed using Toolset and Curve Master. Results are reported in the experimental section (IC50 in μM). All IC50 reported were generated using the HTRF assay except when specifically indicated.
With `CO[C@@H]1[C@@H](n2cc(-c3cccc(F)c3)nn2)[C@@H](O)[C@@H](CO)O[C@H]1C(=O)N[C@@H]1CCC[C@H](n2cc3c(F)cccc3n2)[C@H]1O` (single isomer, unassigned) [Example 8], the 50% inhibitory concentration (IC50) is 570 nM.
Same read-out and setting: next, `CO[C@@H]1[C@@H](n2cc(-c3cccc(F)c3)nn2)[C@@H](O)[C@@H](CO)O[C@H]1C(=O)N(C)[C@H]1COC[C@@H](n2cc(-c3cccc(F)c3)nn2)[C@@H]1O` (single isomer, unassigned) [Example 21]: 30 nM; `CO[C@@H]1[C@@H](n2cc(-c3cccc(F)c3)nn2)[C@@H](O)[C@@H](CO)O[C@H]1C(=O)N(C)[C@H]1CN(C)C[C@@H](n2cc(-c3cccc(F)c3)nn2)[C@@H]1O` [Example 19, (2R,3R,4S,5R,6R)-4-(4-(3-fluorophenyl)-1H-1,2,3-triazol-1-yl)-N-((3S,4R,5R)-5-(4-(3-fluorophenyl)-1H-1,2,3-triazol-1-yl)-4-hydroxy-1-methylpiperidin-3-yl)-5-hydroxy-6-(hydroxymethyl)-3-methoxy-N-methyltetrahydro-2H-pyran-2-carboxamide]: 20 nM.
In the case of `CO[C@@H]1[C@@H](n2cc(-c3cccc(F)c3)nn2)[C@@H](O)[C@@H](CO)O[C@H]1C(=O)N(C)[C@H]1COC[C@@H](n2ncc3cc(F)cnc32)[C@@H]1O` [Example 22a, (2R,3R,4S,5R,6R)-N-((3S,4R,5R)-5-(5-fluoro-1H-pyrazolo[3,4-b]pyridin-1-yl)-4-hydroxytetrahydro-2H-pyran-3-yl)-4-(4-(3-fluorophenyl)-1H-1,2,3-triazol-1-yl)-5-hydroxy-6-(hydroxymethyl)-3-methoxy-N-methyltetrahydro-2H-pyran-2-carboxamide], the IC50 is more than 10000 nM.
The same measure, in the same setting: next, “(2R,3R,4S,5R,6R)-4-(4-(3-fluorophenyl)-1H-1,2,3-triazol-1-yl)-N-((1R,2S,3S)-3-(5-(3-fluorophenyl)-1H-1,2,3-triazol-1-yl)-2-hydroxycyclohexyl)-5-hydroxy-6-(hydroxymethyl)-3-methoxytetrahydro-2H-pyran-2-carboxamide [Example 6a]”: 27000 nM.
On the same count and under the same terms, the figure for “(2R,3R,4S,5R,6R)-4-(4-(3-fluorophenyl)-1H-1,2,3-triazol-1-yl)-N-((1R,2S,3S)-3-(5-(3-fluorophenyl)-1H-1,2,3-triazol-1-yl)-2-hydroxycyclohexyl)-5-hydroxy-6-(hydroxymethyl)-3-methoxytetrahydro-2H-pyran-2-carboxamide [Example 6b]” is 900 nM; for “(2R,3R,4S,5R,6R)-4-(4-(3-fluorophenyl)-1H-1,2,3-triazol-1-yl)-N-((1S,2R,3R)-3-(3-(3-fluorophenyl)-1H-1,2,4-triazol-1-yl)-2-hydroxycyclohexyl)-5-hydroxy-6-(hydroxymethyl)-3-methoxytetrahydro-2H-pyran-2-carboxamide [Example 9a]” it is 500 nM.
As for “(2R,3R,4S,5R,6R)-4-(4-(3-fluorophenyl)-1H-1,2,3-triazol-1-yl)-N-((1S,2R,3R)-3-(3-(3-fluorophenyl)-1H-1,2,4-triazol-1-yl)-2-hydroxycyclohexyl)-5-hydroxy-6-(hydroxymethyl)-3-methoxytetrahydro-2H-pyran-2-carboxamide [Example 9b]”, the concentration for half-maximal inhibition (IC50) was more than 100000 nM.
On the same count and under the same terms, the figure for “(2R,3R,4S,5R,6R)-4-(4-(3-fluorophenyl)-1H-1,2,3-triazol-1-yl)-N-((1S,2R,3R)-3-(4-(3-fluorophenyl)-1H-1,2,3-triazol-1-yl)-2-hydroxycyclohexyl)-5-hydroxy-6-(hydroxymethyl)-3-methoxy-N-methyltetrahydro-2H-pyran-2-carboxamide [Example 10a]” is 5500 nM; for “(2R,3R,4S,5R,6R)-4-(4-(3-fluorophenyl)-1H-1,2,3-triazol-1-yl)-N-((1S,2R,3R)-3-(4-(3-fluorophenyl)-1H-1,2,3-triazol-1-yl)-2-hydroxycyclohexyl)-5-hydroxy-6-(hydroxymethyl)-3-methoxy-N-methyltetrahydro-2H-pyran-2-carboxamide [Example 10b]” it is 91 nM; for “(2R,3R,4S,5R,6R)-4-(4-(3-fluorophenyl)-1H-1,2,3-triazol-1-yl)-N-((3R,4S,5S)-5-(4-(3-fluorophenyl)-1H-1,2,3-triazol-1-yl)-4-hydroxypiperidin-3-yl)-3,5-dihydroxy-6-(hydroxymethyl)-N-methyltetrahydro-2H-pyran-2-carboxamide [Example 18a]” it is 1800 nM.
Same read-out and setting: next, “(2R,3R,4S,5R,6R)-4-(4-(3-fluorophenyl)-1H-1,2,3-triazol-1-yl)-N-((3R,4S,5S)-5-(4-(3-fluorophenyl)-1H-1,2,3-triazol-1-yl)-4-hydroxypiperidin-3-yl)-3,5-dihydroxy-6-(hydroxymethyl)-N-methyltetrahydro-2H-pyran-2-carboxamide [Example 18b]”: 50 nM.
Still for that read-out and setting: next, “(2R,3R,4S,5R,6R)-4-(4-(3-fluorophenyl)-1H-1,2,3-triazol-1-yl)-N-((3R,4S,5S)-5-(4-(3-fluorophenyl)-1H-1,2,3-triazol-1-yl)-4-hydroxypiperidin-3-yl)-5-hydroxy-6-(hydroxymethyl)-3-methoxy-N-methyltetrahydro-2H-pyran-2-carboxamide [Example 16a]”: 3500 nM.
In the case of “(2R,3R,4S,5R,6R)-4-(4-(3-fluorophenyl)-1H-1,2,3-triazol-1-yl)-N-((3R,4S,5S)-5-(4-(3-fluorophenyl)-1H-1,2,3-triazol-1-yl)-4-hydroxypiperidin-3-yl)-5-hydroxy-6-(hydroxymethyl)-3-methoxy-N-methyltetrahydro-2H-pyran-2-carboxamide [Example 16b]”, the IC50 came out at 44 nM.
Same read-out and setting: next, “(2R,3R,4S,5R,6R)-4-(4-(3-fluorophenyl)-1H-1,2,3-triazol-1-yl)-N-((3R,4S,5S)-5-(4-(3-fluorophenyl)-1H-1,2,3-triazol-1-yl)-4-hydroxytetrahydro-2H-pyran-3-yl)-5-hydroxy-6-(hydroxymethyl)-3-methoxytetrahydro-2H-pyran-2-carboxamide [Example 20a]”: 36000 nM; “(2R,3R,4S,5R,6R)-4-(4-(3-fluorophenyl)-1H-1,2,3-triazol-1-yl)-N-((3R,4S,5S)-5-(4-(3-fluorophenyl)-1H-1,2,3-triazol-1-yl)-4-hydroxytetrahydro-2H-pyran-3-yl)-5-hydroxy-6-(hydroxymethyl)-3-methoxytetrahydro-2H-pyran-2-carboxamide [Example 20b]”: 90 nM; “(2R,3R,4S,5R,6R)-N-((1R,2S,3S)-3-(4-fluoro-1H-indazol-1-yl)-2-hydroxycyclohexyl)-4-(4-(3-fluorophenyl)-1H-1,2,3-triazol-1-yl)-5-hydroxy-6-(hydroxymethyl)-3-methoxytetrahydro-2H-pyran-2-carboxamide [Example 7a]”: 640 nM.
The same measure, in the same setting: next, “(2R,3R,4S,5R,6R)-N-((1R,2S,3S)-3-(4-fluoro-1H-indazol-1-yl)-2-hydroxycyclohexyl)-4-(4-(3-fluorophenyl)-1H-1,2,3-triazol-1-yl)-5-hydroxy-6-(hydroxymethyl)-3-methoxytetrahydro-2H-pyran-2-carboxamide [Example 7b]”: 23000 nM.
The same measure, in the same setting: the figure for “(2R,4R,5R,6R)-4-(4-(3-fluorophenyl)-1H-1,2,3-triazol-1-yl)-N-((3R,4S,5S)-5-(4-(3-fluorophenyl)-1H-1,2,3-triazol-1-yl)-4-hydroxypiperidin-3-yl)-5-hydroxy-6-(hydroxymethyl)-N-methyltetrahydro-2H-pyran-2-carboxamide [Example 17a]” is 5200 nM; for “(2R,4R,5R,6R)-4-(4-(3-fluorophenyl)-1H-1,2,3-triazol-1-yl)-N-((3R,4S,5S)-5-(4-(3-fluorophenyl)-1H-1,2,3-triazol-1-yl)-4-hydroxypiperidin-3-yl)-5-hydroxy-6-(hydroxymethyl)-N-methyltetrahydro-2H-pyran-2-carboxamide [Example 17b]” it is 130 nM; for “(2R, 3R, 4S, 5R, 6R)-4-(4-(3-fluorophenyl)-1H-1,2,3-triazol-1-yl)-N-((1S,2R,3R)-3-(4-(3-fluorophenyl)-1H-1,2,3-triazol-1-yl)-2-hydroxycyclohexyl)-5-hydroxy-6-(hydroxymethyl)-3-methoxytetrahydro-2H-pyran-2-carboxamide [Example 1a]” it is 290 nM.

The next experiment concerns the target T1, hGalectin-3 (Homo sapiens, UniProt P17931).
T1 construct: made in house
Description: Gal-3 ELISA Assay (hGalectin-3 neutralization binding assay). The following applies: ASF-coated plate, 15 nM hGalectin-3, read-out: hGal3 IC50 (ELISA). On the technique in general: In an ELISA, binding on a coated surface is turned into a signal by an enzyme label.
For the compound “(2R, 3R, 4S, 5R, 6R)-4-(4-(3-fluorophenyl)-1H-1,2,3-triazol-1-yl)-N-((1S,2R,3R)-3-(4-(3-fluorophenyl)-1H-1,2,3-triazol-1-yl)-2-hydroxycyclohexyl)-5-hydroxy-6-(hydroxymethyl)-3-methoxytetrahydro-2H-pyran-2-carboxamide [Example 1a]”, the IC50 is 700 nM.
Still for that read-out and setting: the figure for “(2R, 3R, 4S, 5R, 6R)-4-(4-(3-fluorophenyl)-1H-1,2,3-triazol-1-yl)-N-((1S,2R,3R)-3-(4-(3-fluorophenyl)-1H-1,2,3-triazol-1-yl)-2-hydroxycyclohexyl)-5-hydroxy-6-(hydroxymethyl)-3-methoxytetrahydro-2H-pyran-2-carboxamide [Example 1b]” is 16000 nM.
